The values below come from ChEMBL document CHEMBL2046283, “Iotrochamides A and B, antitrypanosomal compounds from the Australian marine sponge Iotrochota sp” (Bioorg Med Chem Lett, 2012).

Data set [1] concerns Trypanosoma brucei brucei. The data set can be described thus: Antitrypanosomal activity against Trypanosoma brucei brucei BS427 after 48 hrs by alamar blue assay. It counts as functional, organism-based. Conditions: BS427, 48 h. In general terms: Alamar Blue is a resazurin reagent that responds to reducing activity.
The nature of data set [2]: Growth inhibition of human HEK293 cells at 50 uM after 48 hrs by alamar blue assay relative to control. It counts as cell-based. Conditions: read-out: GI.
The nature of data set [3]: Growth inhibition of human HEK293 cells at 70 uM after 48 hrs by alamar blue assay relative to control. Conditions: read-out: GI. The class given is cell-based.

The IC50 is the concentration that gives 50% inhibition. A high value points to weaker potency. For `CO/C(=C\c1ccccc1)C(=O)N[C@@H](Cc1ccc(O)cc1)C(=O)O` [IOTROCHAMIDES A], in data set [1], the IC50 is 4.7 µM. The inhibition at 48 h, 50 µM in data set [2] came to 85%.
On to `CO/C(=C\c1ccccc1)C(=O)N[C@@H](Cc1c[nH]c2cc(Br)ccc12)C(=O)O` [IOTROCHAMIDES B], for which the inhibition at 48 h, 70 µM in data set [3] is 100%. It took 3.4 µM to reach half-maximal inhibition in data set [1] (IC50).
